Here are results for eight compounds from patent US6720324B2, “Selective melanin concentrating hormone-1 (MCH1) receptor antagonists and uses thereof” (Synaptic Pharmaceutical Corporation, priority 2000, dated 2004).

Assay [1] has as its target T1, human MCH1 receptor (Homo sapiens, UniProt Q99705). The experiment in a line: Functional assay: intracellular calcium mobilization (antagonist potency Kb). The format is cell-based. Details: expressed in transfected cells; host or cells: COS-7 cells, transient, DEAE-dextran, plasmid pEXJ.HR-TL231 (ATCC 203197). Here is the method:
Intracellular calcium mobilization assays for the MCH1 receptor were carried out using plasmid pEXJ.HR-TL231 (ATCC Accession No. 203197). COS-7 cells were transiently transfected with DNA encoding the MCH1 receptor utilizing the DEAE-dextran method as described above. The intracellular free calcium concentration was measured by fluorescent imaging using the calcium sensitive fluorscent dye Fluo-3. COS-7 cells expressing the human MCH1 receptor were seeded onto sterile 96 well plates, washed with Hank's balanced salt solution (HBSS), containing 20 mM HEPES, 2.5 mM probenecid, and 0.1% BSA, and loaded with the same buffer containing 3.8 μM Fluo-3 for 1 hour at 37° C. After washing with HBSS to remove the fluo-3 solution, cells were equilibrated for 10 minutes.
On the technique in general: Calcium flux is commonly read through the fluorescence of an indicator in the cells.

Assay [2] addresses T2, human NPY1 (Homo sapiens, UniProt P25929).
T2 construct: expressed in transfected cells
T2 sequence (P25929 1-384): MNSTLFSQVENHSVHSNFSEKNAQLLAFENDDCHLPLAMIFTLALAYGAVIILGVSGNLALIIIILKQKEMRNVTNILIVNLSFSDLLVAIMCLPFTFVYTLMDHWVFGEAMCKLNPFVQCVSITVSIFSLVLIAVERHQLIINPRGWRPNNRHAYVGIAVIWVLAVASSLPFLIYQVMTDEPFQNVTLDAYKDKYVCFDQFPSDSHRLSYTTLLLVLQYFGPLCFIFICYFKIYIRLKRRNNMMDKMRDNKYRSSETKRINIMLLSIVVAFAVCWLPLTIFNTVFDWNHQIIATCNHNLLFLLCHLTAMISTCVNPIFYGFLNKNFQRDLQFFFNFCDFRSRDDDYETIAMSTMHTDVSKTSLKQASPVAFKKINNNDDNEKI
The experiment in a line: Radioligand binding assay, cloned receptor. As to conditions: Table 2; read-out: hNPY1 Ki. Here is the method: (§1) For binding assays, pellets of transfected cells are suspended in ice-cold buffer (20 mM Tris.HCl, 5 mM EDTA, pH 7.4) and homogenized by sonication for 7 sec. The cell lysates are centrifuged at 200×g for 5 min at 4° C. The supernatants are then centrifuged at 40,000×g for 20 min at 4° C. The resulting pellets are washed once in the homogenization buffer and suspended in binding buffer (see methods for radioligand binding). Protein concentrations are determined by the method of Bradford (1976) using bovine serum albumin as the standard. Binding assays are usually performed immediately, however it is possible to prepare membranes in batch and store frozen in liquid nitrogen for future use.
(§2) The methods to obtain the cDNA of the human NPY1, NPY5, GALR1, GALR2, and GALR3 and rat 5-HT2C receptors, express said receptors in heterologous systems, and carry out assays to determine binding affinity are described in the following publications and above: human NPY1 (Larhammar et al., 1992), human NPY5 (U.S. Pat. No. 5,602,024, the disclosure of which is hereby incorporated by reference in its entirety into this application), human Gal1 (Habert-Ortoli et al., 1994), human Gal2 (Smith et al., 1997), human Gal3 (Smith et al., 1998), and rat 5-HT2C (Julius et al., 1988).

Assay [3] addresses T3, human NPY5 (Homo sapiens, UniProt Q15761).
T3 construct: expressed in transfected cells
T3 sequence (Q15761 1-445): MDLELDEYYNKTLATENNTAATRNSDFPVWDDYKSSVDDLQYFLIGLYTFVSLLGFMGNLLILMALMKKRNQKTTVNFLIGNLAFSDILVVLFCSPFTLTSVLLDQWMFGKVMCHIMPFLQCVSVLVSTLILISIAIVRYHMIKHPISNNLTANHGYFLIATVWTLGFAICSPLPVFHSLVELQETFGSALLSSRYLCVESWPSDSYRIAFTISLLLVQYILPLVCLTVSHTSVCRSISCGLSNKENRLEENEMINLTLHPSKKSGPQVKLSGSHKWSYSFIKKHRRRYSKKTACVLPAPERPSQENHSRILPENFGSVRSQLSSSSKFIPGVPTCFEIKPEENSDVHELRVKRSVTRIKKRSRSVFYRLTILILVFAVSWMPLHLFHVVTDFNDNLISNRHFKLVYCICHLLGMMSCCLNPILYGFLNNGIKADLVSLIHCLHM
The assay can be described thus: Radioligand binding assay, cloned receptor. As to conditions: Table 2; read-out: hNPY5 Ki. Here is the method:
as §1, §2

Assay [4] has as its target T4, human GALR1 (Homo sapiens, UniProt P47211).
T4 construct: expressed in transfected cells
T4 sequence (P47211 1-349): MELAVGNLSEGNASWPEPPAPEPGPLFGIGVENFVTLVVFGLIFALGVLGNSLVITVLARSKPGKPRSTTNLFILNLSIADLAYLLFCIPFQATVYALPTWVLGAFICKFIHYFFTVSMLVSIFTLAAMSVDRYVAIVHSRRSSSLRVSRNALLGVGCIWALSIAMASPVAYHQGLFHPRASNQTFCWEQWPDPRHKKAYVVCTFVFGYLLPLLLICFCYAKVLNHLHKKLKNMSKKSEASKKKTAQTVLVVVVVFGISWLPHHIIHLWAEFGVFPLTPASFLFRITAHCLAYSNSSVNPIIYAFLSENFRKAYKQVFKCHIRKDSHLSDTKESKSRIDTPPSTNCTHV
The experiment in a line: Radioligand binding assay, cloned receptor. As to conditions: Table 2; read-out: hGALR1 Ki. Here is the method: as §1, §2

For assay [5], the target named is T5, human GALR2 (Homo sapiens, UniProt O43603).
T5 construct: expressed in transfected cells
T5 sequence (O43603 1-387): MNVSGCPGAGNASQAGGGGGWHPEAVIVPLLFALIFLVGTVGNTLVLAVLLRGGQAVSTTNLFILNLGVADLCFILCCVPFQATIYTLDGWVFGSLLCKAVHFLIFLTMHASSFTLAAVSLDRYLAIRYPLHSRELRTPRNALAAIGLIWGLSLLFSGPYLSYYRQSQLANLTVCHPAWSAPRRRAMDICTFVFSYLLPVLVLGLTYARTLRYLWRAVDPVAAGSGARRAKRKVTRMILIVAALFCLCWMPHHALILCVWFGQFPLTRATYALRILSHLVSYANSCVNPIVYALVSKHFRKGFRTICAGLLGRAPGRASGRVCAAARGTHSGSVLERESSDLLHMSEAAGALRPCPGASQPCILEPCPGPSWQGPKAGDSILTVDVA
The experiment in a line: Radioligand binding assay, cloned receptor. The following applies: Table 2; read-out: hGALR2 Ki. Here is the method:
as §1, §2

The target in assay [6] is T6, human GALR3 (Homo sapiens, UniProt O60755).
T6 construct: expressed in transfected cells
T6 sequence (O60755 1-368): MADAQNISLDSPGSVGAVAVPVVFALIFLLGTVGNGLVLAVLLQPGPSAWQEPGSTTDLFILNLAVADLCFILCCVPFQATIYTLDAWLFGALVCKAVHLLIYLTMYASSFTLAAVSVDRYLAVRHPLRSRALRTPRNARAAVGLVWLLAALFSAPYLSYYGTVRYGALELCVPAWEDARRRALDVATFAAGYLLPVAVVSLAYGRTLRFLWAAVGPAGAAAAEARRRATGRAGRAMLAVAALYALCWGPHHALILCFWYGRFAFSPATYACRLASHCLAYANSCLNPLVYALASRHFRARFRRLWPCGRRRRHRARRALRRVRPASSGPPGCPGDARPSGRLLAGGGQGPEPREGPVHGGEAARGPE
The experiment in a line: Radioligand binding assay, cloned receptor. As to conditions: Table 2; read-out: hGALR3 Ki. Here is the method: as §1, §2

Assay [7] deals with T7, rat 5-HT2C receptor (Rattus norvegicus, UniProt P08909).
T7 construct: expressed in transfected cells
T7 sequence (P08909 33-460): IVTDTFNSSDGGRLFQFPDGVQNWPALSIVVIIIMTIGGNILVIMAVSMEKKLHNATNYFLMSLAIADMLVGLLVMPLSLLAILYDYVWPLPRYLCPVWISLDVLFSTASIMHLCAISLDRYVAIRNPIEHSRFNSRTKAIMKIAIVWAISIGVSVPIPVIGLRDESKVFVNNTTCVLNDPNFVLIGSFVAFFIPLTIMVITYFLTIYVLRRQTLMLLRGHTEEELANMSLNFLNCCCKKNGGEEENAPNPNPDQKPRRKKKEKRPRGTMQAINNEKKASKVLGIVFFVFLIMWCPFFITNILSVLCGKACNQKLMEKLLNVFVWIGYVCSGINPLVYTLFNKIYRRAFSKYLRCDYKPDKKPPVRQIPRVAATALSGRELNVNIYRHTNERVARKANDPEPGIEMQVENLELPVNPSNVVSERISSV
The experiment in a line: Radioligand binding assay, cloned receptor. As to conditions: Table 2; read-out: r5HT2C Ki. Here is the method:
as §1, §2

In assay [8] the test system is G4F-7 cells. The following applies: cited from earlier work; for Ki: inhibition of radioiodinated [Phe13,Tyr19]-MCH binding.
Assay [9] concerns the target T1, human MCH1 receptor. The assay can be described thus: Radioligand competition binding with [3H]Compound 10, membranes of A293 cells. As to conditions: Table 3, A293 cell membranes, [3H]Compound 10 as radioligand, read-out: hMCH1 * Ki. Here is the method: as §1
Radioligand binding assays for the MCH1 receptor were carried out using plasmid pEXJ.HR-TL231 (ATCC Accession No. 203197). Plasmid pEXJ.HR-TL231 comprises the regulatory elements necessary for expression of DNA in a mammalian cell operatively linked to DNA encoding the human MCH1 receptor so as to permit expression thereof. Plasmid pEXJ.HR-TL231 was deposited on Sep. 17, 1998, with the American Type Culture Collection (ATCC), 12301 Parklawn Drive, Rockville, Md. 20852, U.S.A. under the provisions of the Budapest Treaty for the International Recognition of the Deposit of Microorganisms for the Purposes of Patent Procedure and was accorded ATCC Accession No. 203197. […]
In general terms: Loss of bound radioactivity is the signal in a displacement assay; it reports binding, not function.

Setting [10] is: Table 1, cloned human MCH1 receptor, functional assay, read-out: Kb (nM) hMCH1.
Where [11] appears, read: Table 2, antagonist potency at the human MCH1 receptor, read-out: hMCH1 Kb.

Read-outs that look alike come from different tables or passages of the source. Ends that are not written are not given here.

T1 sequence (Q99705 whole entry): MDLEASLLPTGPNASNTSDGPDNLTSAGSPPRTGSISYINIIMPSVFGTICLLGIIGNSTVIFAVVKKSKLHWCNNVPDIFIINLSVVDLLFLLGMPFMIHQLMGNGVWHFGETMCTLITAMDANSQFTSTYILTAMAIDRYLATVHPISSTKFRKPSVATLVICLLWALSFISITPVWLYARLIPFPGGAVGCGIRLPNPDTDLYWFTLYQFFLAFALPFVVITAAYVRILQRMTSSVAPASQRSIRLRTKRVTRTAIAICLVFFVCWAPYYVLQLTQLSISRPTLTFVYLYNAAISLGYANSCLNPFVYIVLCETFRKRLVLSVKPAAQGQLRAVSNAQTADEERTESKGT

With `O=C(CCCN1CCC(NC(=O)c2ccccc2)CC1)c1ccc(Cl)cc1` [Example 28, 1-[3-(4-CHLOROBENZOYL)]PROPYL-4-BENZAMIDOPIPERIDINE], the Kb in assay [1] (setting [10]) and in [1] (setting [11]) was 60 nM each time. Moreover, in assay [2], the Ki is more than 50000 nM.

With `CCCCc1ccc(-c2cc(=O)[nH]c3[nH]c(=O)[nH]c(=O)c23)s1` [Example 37, 5-(5-BUTYL-2-THIENYL)PYRIDO[2,3-d]PYRIMIDINE-2,4,7(1H,3H,8H)-TRIONE], the Kb in [1] (setting [10]) and in [1] (setting [11]) was 162 nM throughout. The inhibition constant (Ki) in assay [3], in assay [4], in assay [5], in assay [6], in assay [7] and in assay [2] was more than 50000 nM in each case.

Turning to “rat ANF: rat ANF, weakly inhibited binding of the radioiodinated MCH analogue (SLRRSSCFGGRIDRIGAQSGLGCNSFRY; ends and bridges not checked; cysteine pairing not given here; UniProt P01161 123-150, looked up)”, in assay [8], the Ki is 116 nM.

In the case of `COCC1=C(C(=O)OC)C(c2ccc(F)c(F)c2)N(C(=O)NCCCN2CCC(c3cccc(NC(C)=O)c3)CC2)C(=O)N1` (single isomer, unassigned; (+)) [Example 10, (+)-1,2,3,6-TETRAHYDRO-1-{N-[4-(3,-ACETAMIDO)-PHENYL-PIPERIDIN-1-YL]PROPYL}CARBOXAMIDO-4-METHOXYMETHYL-6-(3,4-DIFLUORO-PHENYL)-2-OXOPYRIMIDINE-5-CARBOXYLIC ACID METHYL ESTER], the Kb in [1] (setting [10]) amounted to 0.3 nM. The Ki was found to be 29600 nM in [7] and 0.08 nM in assay [9].

Regarding α-MSH, in assay [8] (radioiodinated [Phe13,Tyr19]-MCH binding), the inhibition of binding result was “not inhibited”.

For the compound `CCN1c2ccc(/C=C3\SC(=S)NC3=O)cc2C(C)=CC1(C)C` [Example 25], the Kb in assay [1] (setting [10]) and in assay [1] (setting [11]) was 126 nM each time. For the same compound, the Ki in assay [2] was more than 50000 nM.

As for “[Phe^13,Tyr^19]-MCH: radioiodinated MCH analogue; the ligand retained biological activity and exhibited specific binding to a variety of cell lines”, the Kd in [8] (radioiodinated ligand, G4F-7 cells) was 0.118 nM.

Take “Melanin-concentrating hormone [native MCH]”: the Ki in assay [8] is 12 nM.

A word on the Kb: it is the equilibrium dissociation constant of an antagonist, usually derived from a functional assay. Usually Ki stands for the equilibrium dissociation constant of an inhibitor or competing ligand from its target. In general, Kd refers to the concentration at which binding is half-saturated.
